{"source": "patent US20070203247A1", "about": "“E[…] REGIMENS” (priority 2006, published 2007)", "system": "patient experiencing an allergic emergency (anaphylaxis)", "settings": "no amelioration after approx. 5 minutes, same device, within about five minutes after second dose", "description": "Administration of a first and second injectable dosage form comprising an epinephrine solution for the treatment of anaphylaxis\nA patient weighing approximately 15 Kg experiencing an allergic emergency whereupon a caretaker initiates treatment at the onset of shortness of breath by administering to the patient an auto-injection of a first dose of an epinephrine solution comprising 0.1 mg of epinephrine intramuscularly.\nA patient weighing approximately 25 Kg experiencing an allergic emergency initiates treatment at the onset of shortness of breath by self administering a manual injection of a first dose of an epinephrine solution comprising 0.125 mg of epinephrine intramuscularly.\nA patient weighing approximately 90 Kg experiencing an allergic emergency initiates treatment at the onset of shortness of breath by self administering an auto-injection of a first dose of an epinephrine solution comprising 0.6 mg of epinephrine subcutaneously.\nA patient weighing approximately 110 Kg experiencing an allergic emergency initiates treatment at the onset of shortness of breath by self administering an auto-injection of a first dose of an epinephrine solution comprising 0.75 mg of epinephrine intramuscularly.", "note": "Where two headings read alike, the source gives them in different places.", "data": [{"smiles": "CNC[C@H](O)c1ccc(O)c(O)c1", "note": "[epinephrine]", "values": [{"measurement": "patient's symptoms of anaphylaxis after the second injectable dose", "setting": "Example 1: patient approx. 15 Kg, first dose 0.1 mg auto-injection intramuscularly, second dose 0.15 mg manual intramuscularly", "result": "symptoms of anaphylaxis are relieved or are at an acceptable level for transporting the patient to a physician"}, {"measurement": "patient's symptoms of anaphylaxis after the second injectable dose", "setting": "Example 2: patient approx. 25 Kg, first dose 0.125 mg manual intramuscularly, second dose 0.125 mg manual intramuscularly", "result": "symptoms of anaphylaxis are relieved or are at an acceptable level for transporting the patient to a physician"}, {"measurement": "patient's symptoms of anaphylaxis after the second injectable dose", "setting": "Example 3: patient approx. 90 Kg, first dose 0.6 mg auto-injection subcutaneously, second dose 0.75 mg manual intramuscularly", "result": "symptoms of anaphylaxis are relieved or are at an acceptable level for transporting the patient to a physician"}, {"measurement": "patient's symptoms of anaphylaxis after the second injectable dose", "setting": "Example 4: patient approx. 110 Kg, first dose 0.75 mg auto-injection intramuscularly, second dose 1.0 mg auto-injector intramuscularly", "result": "symptoms of anaphylaxis are relieved or are at an acceptable level for transporting the patient to a physician"}]}]}
